A short description of this assay: Dissociation constant against galectin-3 using competitive fluorescence polarization. (In general: Polarisation of emitted light reports the rotation of a fluorescent probe.)

The values that follow come from ChEMBL document CHEMBL1144386, “Synthesis of O-galactosyl aldoximes as potent LacNAc-mimetic galectin-3 inhibitors” (Bioorg Med Chem Lett, 2005).

By Kd is commonly meant the concentration at which binding is half-saturated. Low values mean tighter binding, high ones weaker binding. For `O=[N+]([O-])c1cccc(/C=N/O[C@@H]2OC(CO)C(O)[C@H](O)C2O)c1` (stereo partly specified), the Kd was determined as 0.53 mM.

`Cc1ccc(O)c(/C=N/O[C@@H]2OC(CO)C(O)[C@H](O)C2O)c1` (stereo partly specified) gave a Kd of 2.6 mM.

In turn, `OCC1O[C@@H](O/N=C/c2cccc(OC(F)(F)F)c2)C(O)[C@@H](O)C1O` (stereo partly specified) registered a Kd of 2.2 mM.

In the case of `OCC1O[C@@H](O/N=C/c2cccc3ccccc23)C(O)[C@@H](O)C1O` (stereo partly specified), the Kd worked out at 0.37 mM.

`OCC1O[C@@H](O/N=C/c2ccc(-c3ccccc3)cc2)C(O)[C@@H](O)C1O` (stereo partly specified): the Kd is 6 mM.

`OCC1O[C@@H](O/N=C/c2ccccc2O)C(O)[C@@H](O)C1O` (stereo partly specified) yielded a Kd of 1.8 mM.

Compound `OCC1O[C@@H](O/N=C/c2c[nH]c3ccccc23)C(O)[C@@H](O)C1O` (stereo partly specified) registered a Kd of 0.33 mM.

For the compound `OCC1O[C@@H](O/N=C/c2ccc(F)cc2)C(O)[C@@H](O)C1O` (stereo partly specified), the Kd came out at 3.1 mM.

`COc1ccc(/C=N/O[C@@H]2OC(CO)C(O)[C@H](O)C2O)c(O)c1` (stereo partly specified) gave a Kd of 1.7 mM.

The compound `OCC1O[C@@H](O/N=C/c2cccc(O)c2)C(O)[C@@H](O)C1O` (stereo partly specified) gave a Kd of 1.8 mM.

The compound `OC[C@H]1O[C@@H](O/N=C/c2c[nH]c3ccccc23)[C@H](O)[C@@H](O)[C@H]1O` had a dissociation constant (Kd) of 0.22 mM.

`C/C=N/O[C@@H]1OC(CO)C(O)[C@H](O)C1O` (stereo partly specified) had a Kd of 5.7 mM.

`O=[N+]([O-])c1ccc(/C=N/O[C@@H]2OC(CO)C(O)[C@H](O)C2O)o1` (stereo partly specified) displayed a Kd of 1.6 mM.

In the case of `OCC1O[C@@H](O/N=C/c2ccccc2F)C(O)[C@@H](O)C1O` (stereo partly specified), the Kd is over 10 mM.

`OCC1O[C@@H](O/N=C/c2ccoc2)C(O)[C@@H](O)C1O` (stereo partly specified) displayed a Kd of over 10 mM.

`OCC1O[C@@H](O/N=C/CCl)C(O)[C@@H](O)C1O` (stereo partly specified) yielded a Kd of 5.3 mM.

On to `NO[C@@H]1OC(CO)C(O)[C@H](O)C1O` (stereo partly specified), for which binding was characterised by a dissociation constant (Kd) of 5.5 mM.

`OCC1O[C@@H](O/N=C/c2ccc(Br)cc2)C(O)[C@@H](O)C1O` (stereo partly specified) yielded a Kd of 0.69 mM.

As to `CC(=O)Nc1ccc(/C=N/O[C@@H]2OC(CO)C(O)[C@H](O)C2O)cc1` (stereo partly specified), the Kd turned out to be 4.1 mM.

`OCC1O[C@@H](O/N=C/c2cccc(-c3ccccc3)c2)C(O)[C@@H](O)C1O` (stereo partly specified): the Kd amounted to 2.9 mM.

`OCC1O[C@@H](O/N=C/c2ccc(O)cc2)C(O)[C@@H](O)C1O` (stereo partly specified) had a Kd of 4.8 mM.

Compound `CCn1c2ccccc2c2cc(/C=N/O[C@@H]3OC(CO)C(O)[C@H](O)C3O)ccc21` (stereo partly specified) had a Kd of 2.2 mM.

Compound `OCC1O[C@@H](O/N=C/c2ccc(OCc3ccccc3)cc2)C(O)[C@@H](O)C1O` (stereo partly specified) showed a Kd of over 10 mM.

`OCC1O[C@@H](O/N=C/c2ccccc2-c2ccccc2)C(O)[C@@H](O)C1O` (stereo partly specified): the Kd was found to be 2.9 mM.

Turning to `OCC1O[C@@H](O/N=C/C(c2ccccc2)c2ccccc2)C(O)[C@@H](O)C1O` (stereo partly specified), the Kd was found to be 7.2 mM.

Regarding `COc1cccc(/C=N/O[C@@H]2OC(CO)C(O)[C@H](O)C2O)c1O` (stereo partly specified), binding was characterised by a dissociation constant (Kd) of 1.7 mM.

`C=NO[C@@H]1OC(CO)C(O)[C@H](O)C1O` (stereo partly specified) displayed a Kd of 8.9 mM.

`O=[N+]([O-])c1ccc(/C=N/O[C@@H]2OC(CO)C(O)[C@H](O)C2O)cc1` (stereo partly specified): binding was characterised by a dissociation constant (Kd) of 2.2 mM.

As for `Cc1ccccc1/C=N/O[C@@H]1O[C@@H](CO)[C@H](O)[C@H](O)[C@@H]1O`, binding was put at a Kd of 5.7 mM.

In turn, `OCC1O[C@@H](O/N=C/c2ccc3ccccc3c2)C(O)[C@@H](O)C1O` (stereo partly specified) showed an equilibrium dissociation constant (Kd) of 2.3 mM.

Compound `CN(C)c1ccc(/C=N/O[C@@H]2OC(CO)C(O)[C@H](O)C2O)cc1` (stereo partly specified) returned a Kd of 9 mM.

Consider `OCC1O[C@@H](O/N=C/c2ccc(O)c(O)c2)C(O)[C@@H](O)C1O` (stereo partly specified), for which binding was characterised by a dissociation constant (Kd) of 0.55 mM.

In the case of `O=[N+]([O-])c1ccc(/C=N/O[C@@H]2OC(CO)C(O)[C@H](O)C2O)c([N+](=O)[O-])c1` (stereo partly specified), the Kd was 1.8 mM.

For the compound `OCC1O[C@@H](O/N=C/C2CCCCC2)C(O)[C@@H](O)C1O` (stereo partly specified), the equilibrium dissociation constant (Kd) was found to be 4.8 mM.

Regarding `OCC1O[C@@H](O/N=C\C2C[C@H]3C=CC2C3)C(O)[C@@H](O)C1O` (stereo partly specified), binding was put at a Kd of 4.8 mM.

`OCC1O[C@@H](O/N=C/c2ccccc2OC(F)(F)F)C(O)[C@@H](O)C1O` (stereo partly specified) had a Kd of 3.8 mM.

As for `OCC1O[C@@H](O/N=C/c2ccc(O)cc2O)C(O)[C@@H](O)C1O` (stereo partly specified), the Kd was 0.84 mM.

`CC(C)(C)c1ccc(/C=N/O[C@@H]2OC(CO)C(O)[C@H](O)C2O)cc1` (stereo partly specified) gave a Kd of 4.8 mM.

In the case of `OCC1O[C@@H](O/N=C/c2ccnc3ccccc23)C(O)[C@@H](O)C1O` (stereo partly specified), the Kd was determined as 0.62 mM.

`OCC1O[C@@H](O/N=C/c2ccc3ccccc3n2)C(O)[C@@H](O)C1O` (stereo partly specified) came in with a Kd of 1.4 mM.

Take `OCC1O[C@@H](O/N=C/c2cc(Br)ccc2O)C(O)[C@@H](O)C1O` (stereo partly specified): the Kd was 1.65 mM.

`OCC1O[C@@H](O/N=C/c2cccc(F)c2)C(O)[C@@H](O)C1O` (stereo partly specified): the dissociation constant (Kd) came to 1.6 mM.

As to `OCC1O[C@@H](O/N=C/c2ccccc2)C(O)[C@@H](O)C1O` (stereo partly specified), the affinity, expressed as Kd, was 3.5 mM.

`O=[N+]([O-])c1ccccc1/C=N/O[C@@H]1OC(CO)C(O)[C@H](O)C1O` (stereo partly specified) yielded a Kd of 9.3 mM.

In turn, `OCC1O[C@@H](O/N=C/c2c3ccccc3cc3ccccc23)C(O)[C@@H](O)C1O` (stereo partly specified) yielded a Kd of 2.5 mM.

Compound `OCC1O[C@@H](O/N=C/CCc2ccccc2)C(O)[C@@H](O)C1O` (stereo partly specified) had a Kd of over 10 mM.

`OCC1O[C@@H](O/N=C/c2cc(O)ccc2O)C(O)[C@@H](O)C1O` (stereo partly specified) displayed a Kd of 0.78 mM.

`OCC1O[C@@H](O/N=C/Cc2ccccc2)C(O)[C@@H](O)C1O` (stereo partly specified) came in with a Kd of over 10 mM.

`OCC1O[C@@H](O/N=C/c2cccnc2)C(O)[C@@H](O)C1O` (stereo partly specified) had a Kd of 3.3 mM.

With `O=[N+]([O-])c1ccc(O)c(/C=N/O[C@@H]2OC(CO)C(O)[C@H](O)C2O)c1` (stereo partly specified), binding was put at a Kd of 0.36 mM.

The compound `CCC(/C=N/O[C@@H]1OC(CO)C(O)[C@H](O)C1O)CC` (stereo partly specified) registered a Kd of 7.3 mM.

Regarding `OCC1O[C@@H](O/N=C/c2ccncc2)C(O)[C@@H](O)C1O` (stereo partly specified), the Kd was over 10 mM.

Turning to `OCC1O[C@@H](O/N=C/c2ccco2)C(O)[C@@H](O)C1O` (stereo partly specified), the Kd stood at 6.4 mM.

`O=C[C@H](O)[C@@H](O)[C@@H](O)[C@H](O)CO` [GALACTOSE] yielded a dissociation constant Kd of 4 mM.

For the compound `OC[C@H]1O[C@@H](O)[C@H](O)[C@@H](O)[C@H]1O` [b-D-GALACTOSE], the affinity, expressed as Kd, was 4.4 mM.

In the case of LACTOSE, ANHYDROUS, the Kd was found to be 0.22 mM.
